Molecules are shown by their SMILES. Read-outs that look alike come from different tables or passages of the source. Marks after values point to notes of the source that are not given here.

For data set [1], the system named is CHK1 S296 autophosphorylation in SW620 human colon cancer xenografts. Nature of the data set: Gemcitabine-induced CHK1 phosphorylation in SW620 xenografts. In kind it is in vivo, mouse. The conditions noted are these: single po dose at MTD (20: 160, 26: 300 mg/kg); 12 h after gemcitabine.
Data set [2] in a line: Plasma and tumor drug levels in SW620 xenograft-bearing mice. In kind it is in vivo, mouse. The conditions noted are these: po dose at MTD.
For data set [3], the system named is panel of 140 representative kinases. The data set can be described thus: Radiometric kinase panel summary, 1 μM. In kind it is biochemical, human. The conditions noted are these: of 140 kinases.
For a further data set, the system named is AMPK. The data set can be described thus: radiometric kinase profiling. In kind it is biochemical. The conditions noted are these: 1 μM.
The subject of another data set is 121 kinases. The conditions noted are these: against 89 out of the 121 enzymes, screen at 10 μM.
The subject of data set [4] is pS296 CHK1 in HT29 colon tumor xenografts. The conditions noted are these: single doses 100–300 mg/kg po; cited from earlier work.
Data set [5] has as its system HT29 human colon cancer xenograft. The conditions noted are these: cited from earlier work; for tumor growth delay (days), 26: HT29, q7d × 3, 26 75 mg/kg po alone.
For data set [6], the system named is SW620 human colon cancer xenograft. The conditions noted are these: SW620, q4d × 3, gemcitabine 100 mg/kg iv + 26 75 mg/kg po; cited from earlier work.
Data set [7] deals with Calu6 human non-small cell lung cancer xenograft. The conditions noted are these: Calu6, q7d × 3, gemcitabine 100 mg/kg iv + 26 75 mg/kg po; cited from earlier work.
The nature of a further data set: CaCo-2 permeability. In kind it is in vitro ADME. The conditions noted are these: human.
In the next data set the target is CHK2 (Homo sapiens, UniProt O96017). Nature of the data set: CHK2 DELFIA kinase assay. In kind it is biochemical. The conditions noted are these: data not shown.
Sequence of CHK2 (O96017 whole entry, species assumed): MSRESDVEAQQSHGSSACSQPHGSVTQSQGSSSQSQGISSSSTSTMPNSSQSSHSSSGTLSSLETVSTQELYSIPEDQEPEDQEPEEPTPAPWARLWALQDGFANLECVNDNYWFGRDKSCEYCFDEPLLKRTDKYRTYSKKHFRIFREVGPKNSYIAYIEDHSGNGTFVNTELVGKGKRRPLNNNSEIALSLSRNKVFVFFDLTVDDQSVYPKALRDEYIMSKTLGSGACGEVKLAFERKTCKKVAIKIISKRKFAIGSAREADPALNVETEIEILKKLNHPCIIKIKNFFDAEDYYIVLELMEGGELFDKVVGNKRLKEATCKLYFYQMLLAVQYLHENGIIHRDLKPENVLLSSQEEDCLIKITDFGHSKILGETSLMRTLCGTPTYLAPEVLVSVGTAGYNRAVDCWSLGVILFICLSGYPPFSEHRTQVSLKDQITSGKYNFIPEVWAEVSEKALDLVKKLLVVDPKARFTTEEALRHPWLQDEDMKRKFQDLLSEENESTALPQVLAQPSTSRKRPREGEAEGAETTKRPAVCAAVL
The target in another data set is CDK1 (Homo sapiens, UniProt P06493). The conditions noted are these: data not shown.
Sequence of CDK1 (P06493 whole entry, looked up): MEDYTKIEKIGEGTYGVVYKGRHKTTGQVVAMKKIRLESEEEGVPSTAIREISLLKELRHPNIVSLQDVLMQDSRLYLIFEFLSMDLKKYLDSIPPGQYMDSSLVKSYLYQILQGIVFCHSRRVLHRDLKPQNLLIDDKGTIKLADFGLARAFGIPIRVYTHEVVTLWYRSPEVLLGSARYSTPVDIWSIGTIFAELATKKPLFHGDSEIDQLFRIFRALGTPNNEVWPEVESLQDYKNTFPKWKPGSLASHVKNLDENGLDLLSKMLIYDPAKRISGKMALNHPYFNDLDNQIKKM
Setting [8] is: 10 mg/kg iv, 6 h, 9 normalized from 5 mg/kg, 24 from 1 mg/kg, 20 from full PK.

Consider `COc1cc(Nc2cnc(C#N)c(O[C@H](C)CN(C)C)n2)ncc1-c1cnn(C)c1` [Compound 26, (R)-3-((1-(Dimethylamino)propan-2-yl)oxy)-5-((4-methoxy-5-(1-methyl-1H-pyrazol-4-yl)pyridin-2-yl)amino)pyrazine-2-carbonitrile], for which, in [1], the “inhibition of CHK1 S296 autophosphorylation, 12 h” value is “robust inhibition”. Moreover, the “fall in drug concentration between 6 and 12 h” value in data set [2] is 2–3 fold. Moreover, the “number of enzymes strongly inhibited (>80%)” value in [3] was 7. Further, the “inhibition (strongly inhibited)” value with AMPK is recorded as over 80%. In addition, for the setting “10 mg/kg, 1 h”, the “enhancement in plasma levels at the 1 h time point relative to 20” value is listed as 2 fold. For the same molecule, the “selectivity for CHK1” value in the data set with 121 kinases is given as over 1000 fold. Besides, the “duration of inhibition of gemcitabine-induced pS296 CHK1” value in [4] is on record as “up to 24 h”. The “tumor growth delay (days), 26” value was “–1.8 (±2.1) days” in [5] (gemcitabine experiment) and 0.30 (±1.4) days in [5] (irinotecan experiment). Also, the “tumor growth delay (days), combination” value in [5] (HT29, q7d × 3, gemcitabine 100 mg/kg iv + 26 75 mg/kg po at 24 and 48 h) is reported as 11.4 (±3.3) days; in data set [5] (HT29, q7d × 3, irinotecan 12.5 mg/kg i.p. + 26 75 mg/kg po) it was 13.5 (±2.4) days; in data set [6], 6.0 (±2.4) days; in [7], 15.9 (±2.5) days.
Regarding `CNc1cc(Nc2cnc(C#N)c(O[C@H](C)CN(C)C)n2)ncc1-c1cnn(C)c1` [Compound 20, (R)-3-((1-(Dimethylamino)propan-2-yl)oxy)-5-((5-(1-methyl-1H-pyrazol-4-yl)-4-(methylamino)pyridin-2-yl)amino)pyrazine-2-carbonitrile], in data set [1], the “inhibition of CHK1 S296 autophosphorylation, 12 h” value was “less powerful effect”. Moreover, in [2], the “fall in drug concentration between 6 and 12 h” value is given as “ca. 20 fold”. Besides, for the setting “10 mg/kg iv, 1 h, 9 normalized from 5 mg/kg, 24 from 1 mg/kg, 20 from full PK”, the “mouse plasma level iv, 1 h” value is recorded as 910 (±23) ^h nM. For the same molecule, the “mouse plasma level iv, 6 h” value under setting [8] was 45 (±10) ^h nM. Where the note is “10 mg/kg po, 1 h”, the “mouse plasma level po, 1 h” value is reported as 555 (±82) ^h nM. Besides, the “mouse plasma level po, 6 h” value (10 mg/kg po, 6 h) is reported as 57 (±7) ^h nM.
By efflux ratio is commonly meant a quotient of directional permeabilities that is used to spot active efflux. With `CNc1cc(Nc2cnc(C#N)c(O[C@H](C)CN(C)C)n2)ncc1C(F)(F)F` [Compound 15], in the data set “CaCo-2 permeability”, the efflux ratio is over 6.
Regarding `CNc1cc(Nc2cnc(C#N)c(O[C@@H]3CCN(C)C3)n2)ncc1-c1cnn(C)c1` [Compound 24], the “mouse plasma level iv, 6 h” value under setting [8] is <20 ^i, ^j nM.
`COC(=O)c1cnc(Nc2cnc(C#N)c(O[C@@H]3CCNC3)n2)cc1N(C)C` [Compound 10]: at CHK2, the “selectivity for CHK1 inhibition over CHK2” value is on record as “greater than 100 fold”. Also, at CDK1, the “selectivity for CHK1 inhibition over CDK1” value is recorded as “greater than 100 fold”.

These data come from article PMC3506129 (Journal of Medicinal Chemistry, 2012).
